# Earlier results as cited in US10183028B2, “Enrichment method of ergosterol peroxide from sporoderm-broken Ganoderma lucidum spore powder” (Guangzhou Polysarm Bioscience Corp., priority 2015, dated 2019).
# Assays:
# [1] = tested on: fungal; conditions: Chinese application 200810119948.3
# [2] = tested on: brain tumor cells (U87); conditions: Chinese application 201210233192.1
# [3] = tested on: malignant breast cancer cells (MT-1); conditions: Chinese application 201210233192.1
# [4] = tested on: human breast cancer and liver cancer; conditions: Chinese application 200610126091.9
# [5] = tested on: formation of melanin; conditions: Chinese application 01817014.5
# [6] = tested on: Hela cancer cells; conditions: Chinese application 201410311586.3
# [7] = tested on: drug-resistant brain tumor stem cells; conditions: Chinese application 201210233192.1
# [8] = tested on: prodenia litura; conditions: Chinese application 01817014.5
# [9] = tested on: aphid; conditions: Chinese application 01817014.5
# [10] = tested on: lymphoma cancer cells (Jurkat); conditions: Chinese application 201210233192.1
# [11] = tested on: pieris rapae; conditions: Chinese application 01817014.5
smiles,measurement,setting,value
"CC(C)[C@@H](C)C=C[C@@H](C)[C@H]1CC[C@@H]2[C@]1(C)CC[C@H]1[C@]23C=C[C@]2(C[C@@H](O)CC[C@]12C)OO3 [Ergosterol peroxide, 5α,8α-Epidioxyergosta-6,22-dien-3β-ol]",antifungal bioactivity,[1],remarkable antifungal bioactivity
same,inhibitory effect on brain tumor cells (U87),[2],significant inhibitory effect
same,inhibitory effect on malignant breast cancer cells (MT-1),[3],significant inhibitory effect
same,harmful effects on immune organs and weight,[4],no harmful effects
same,anti-tumor pharmacological activity,[4]; human breast cancer and liver cancer,significant anti-tumor
same,inhibitory effects on the formation of melanin,[5],strong inhibitory effects
same,synergy with taxol in killing or damaging Hela cancer cells,[6],synergy with taxol
same,killing of drug-resistant brain tumor stem cells,[7],kills
same,poisoning effects on agricultural pests,[8],poisoning effects
same,poisoning effects on agricultural pests,[9],poisoning effects
same,inhibitory effect on lymphoma cancer cells (Jurkat),[10],significant inhibitory effect
same,poisoning effects on agricultural pests,[11],poisoning effects
